Assays:
HiBiT-tagged MDM2 = molecular target: T1, HiBiT-tagged MDM2 (Homo sapiens, UniProt Q00987); test: MDM2 HiBit HEK293T degradation; format: cell-based; details: HEK293T cells stably expressing C-terminally HiBiT-tagged MDM2; 4 h; read-out: MDM2 HiBit HEK293T degradation 4 h: Average external-Abs DC50
T1 construct: expressed in transfected cells
Description: HEK293T cells were grown overnight to 70-80% confluency in a 6-well plate in complete media (DMEM 10% FBS) in a 37° C. incubator with 5% CO2. Cells were transfected with 1 micrograms of C- or N-terminally HiBiT-tagged MDM2 constructs using Fugene 6 transfection reagent (Promega) as per manufacturer protocol. After overnight incubation at 37° C., growth media within the wells was replaced with selection media (DMEM+10% FBS+1 microgram/ml final concentration of Puromycin). Puromycin (selection antibiotic) concentrations required for complete cell kill were determined previously. Cells were monitored for the next 48h-96h to select for positively transfected cells. Surviving colonies were pooled and expanded in selection media. Expanded pools of HEK293T cells stably expressing C- and N-terminally HiBiT-tagged MDM2, were characterized using a MDM2 tool degrader and HaloPROTAC3 as positive control. HEK293T cells expressing C-terminally HiBiT-tagged MDM2 were subsequently used for assessment of degradation potencies for MDM2 degraders.
The letter codes for MDM2 degradation potency (DC50) include: A (<10 nM), B […], C (>100-1000 nM), and D (>1000 nM).

RS411 cells = test: Cell Viability CTG Assay; format: cell-based; details: Homo sapiens, RS4-11, CellTiter Glo (CTG) cell viability, read-out: Average external-IC50
Description: Compounds or DMSO 60 nL were stamped to the cell plate as the platemap. RS411 cells were centrifuged at 800 rpm for 5 min, suspended with culture medium, and counted with Countess (Invitrogen). The cell density was adjusted to the recommend information. 30 μL of cell solution (1000 cells/well) was added to the assay plate as the platemap and 30 μL of media was added to column 2 and column 23 as the platemap. The plate was spun down briefly. The final concentration of the compounds started at 10 μM (3 fold dilution and 11 doses) and final DMSO concentration was 0.2%. The plate was spun down briefly and incubated at 37° C., 5% CO2 for 1 day. […] 30 μL CellTiter Glo reagent was added to each well and the plate was centrifuged at 1000 rpm for 30 sec. The plate was shaken for 1 min and centrifuged at 1000 rpm for 30 sec. The plate was incubated at RT for 10 min to stabilize the luminescent signal and the luminescence was read by EnVision.
The letter codes for IC50 indicate the concentration of compound required to affect 50% of cells: A (<0.005 μM), B (0.005-0.05 μM), C (0.05-0.5 μM), and D (>0.5 μM).

T1 sequence (Q00987 whole entry): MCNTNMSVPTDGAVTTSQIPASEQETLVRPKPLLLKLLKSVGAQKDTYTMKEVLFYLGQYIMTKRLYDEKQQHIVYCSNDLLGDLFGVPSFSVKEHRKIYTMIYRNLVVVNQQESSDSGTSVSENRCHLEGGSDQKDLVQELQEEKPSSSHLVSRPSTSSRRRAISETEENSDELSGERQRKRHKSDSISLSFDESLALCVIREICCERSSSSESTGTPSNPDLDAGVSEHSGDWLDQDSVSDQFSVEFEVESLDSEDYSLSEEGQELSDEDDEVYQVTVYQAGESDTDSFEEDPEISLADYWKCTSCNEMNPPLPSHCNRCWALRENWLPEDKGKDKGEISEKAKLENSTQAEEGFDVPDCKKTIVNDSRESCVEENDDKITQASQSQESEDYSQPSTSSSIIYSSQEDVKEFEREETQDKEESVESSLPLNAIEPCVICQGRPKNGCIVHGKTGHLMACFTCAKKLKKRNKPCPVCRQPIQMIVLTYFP

| SMILES | DC50 (HiBiT-tagged MDM2) [nM] | IC50 (RS411 cells) [nM] |
| --- | --- | --- |
| Cn1c(=O)n([C@H]2CCC(=O)NC2=O)c2ccc(C3CCN(C(=O)[C@H]4CC[C@H](NC(=O)[C@@H]5NC6(CCCCC6)[C@@]6(C(=O)Nc7cc(Cl)ccc76)[C@H]5c5cccc(Cl)c5F)CC4)CC3)cc21 (single isomer, unassigned) [I-103] | < 10 | < 5 |
| Cn1c(=O)n([C@@H]2CCC(=O)NC2=O)c2ccc(C3CCN(C(=O)[C@H]4CC[C@H](NC(=O)[C@@H]5NC6(CCCCC6)[C@@]6(C(=O)Nc7cc(Cl)ccc76)[C@H]5c5cccc(Cl)c5F)CC4)CC3)cc21 (single isomer, unassigned) [I-104] | < 10 | < 5 |
| CN1CCN(C[C@H]2CC[C@H](NC(=O)[C@@H]3NC4(CCCCC4)[C@@]4(C(=O)Nc5cc(Cl)ccc54)[C@H]3c3cccc(Cl)c3F)CC2)C[C@H]1CCc1ccc2c(c1)n(C)c(=O)n2C1CCC(=O)NC1=O (some centres unmarked) [I-1] | < 10 | < 5 |
| COc1cc2c(cc1OC(C)C)[C@H](c1ccc(Cl)cc1)N(c1ccc(N(C)CC3CCN(CCCCc4ccc5c(c4)n(C)c(=O)n5C4CCC(=O)NC4=O)CC3)cc1)C(=O)C2 (some centres unmarked) [I-4] | 10 to 100 | < 5 |
| Cn1c(=O)n(C2CCC(=O)NC2=O)c2ccc(C3=CCN(C[C@H]4CC[C@H](NC(=O)[C@@H]5NC6(CCCCC6)[C@@]6(C(=O)Nc7cc(Cl)ccc76)[C@H]5c5cccc(Cl)c5F)CC4)CC3)cc21 (some centres unmarked) [I-5] | < 10 | < 5 |
| COc1cc2c(cc1OC(C)C)[C@H](c1ccc(Cl)cc1)N(c1ccc(N(C)C[C@H]3CC[C@H](N(CCS(C)(=O)=O)C(=O)CCCCc4ccc5c(c4)n(C)c(=O)n5C4CCC(=O)NC4=O)CC3)cc1)C(=O)C2 (some centres unmarked) [I-6] | 10 to 100 | < 5 |
| CC1(C)CCC2(CC1)NC(C(=O)N[C@H]1CC[C@H](CN3CCN(CCC#Cc4ccn5c(N6CCC(=O)NC6=O)cnc5c4)CC3)CC1)[C@H](c1ccnc(Cl)c1F)[C@]21C(=O)Nc2cc(Cl)ccc21 (some centres unmarked) [I-7] | < 10 | 5 to 50 |
| Cn1c(=O)n(C2CCC(=O)NC2=O)c2ccc(C#CCC3(C(=O)O)CCN(C[C@H]4CC[C@H](NC(=O)[C@@H]5NC6(CCCCC6)[C@@]6(C(=O)Nc7cc(Cl)ccc76)[C@H]5c5cccc(Cl)c5F)CC4)CC3)cc21 (some centres unmarked) [I-8] | < 10 | 5 to 50 |
| CC(C)[C@@H](CS(=O)(=O)C(C)C)N1C(=O)[C@@](C)(CC(=O)Nc2ccc(C(=O)N3CCN(CCCc4ccc5c(c4)n(C)c(=O)n5C4CCC(=O)NC4=O)CC3)cc2)C[C@H](c2cccc(Cl)c2)[C@H]1c1ccc(Cl)cc1 (some centres unmarked) [I-9] | 10 to 100 | 5 to 50 |
| Cn1c(=O)n(C2CCC(=O)NC2=O)c2ccc(CN3CCC(OC4CCN(Cc5ccc(NC(=O)[C@@H]6NC7(CCCCC7)[C@@]7(C(=O)Nc8cc(Cl)ccc87)[C@H]6c6cccc(Cl)c6F)cc5)CC4)CC3)cc21 (some centres unmarked) [I-10] | < 10 | < 5 |
| Cn1c(=O)n(C2CCC(=O)NC2=O)c2ccc(CC[C@H]3CN(C[C@H]4CC[C@H](NC(=O)[C@@H]5NC6(CCCCC6)[C@@]6(C(=O)Nc7cc(Cl)ccc76)[C@H]5c5cccc(Cl)c5F)CC4)CCO3)cc21 (some centres unmarked) [I-11] | < 10 | < 5 |
| COc1cc2c(cc1OC(C)C)[C@H](c1ccc(Cl)cc1)N(c1ccc(N(C)C[C@H]3CC[C@H](N(CCC(=O)O)C(=O)CCCCc4ccc5c(c4)n(C)c(=O)n5C4CCC(=O)NC4=O)CC3)cc1)C(=O)C2 (some centres unmarked) [I-12] | 100 to 1000 | > 500 |
| CN1CCN(C[C@H]2CC[C@H](NC(=O)[C@@H]3NC4(CCCCC4)[C@@]4(C(=O)Nc5cc(Cl)ccc54)[C@H]3c3cccc(Cl)c3F)CC2)C[C@@H]1CCc1ccc2c(c1)n(C)c(=O)n2C1CCC(=O)NC1=O (some centres unmarked) [I-13] | < 10 | < 5 |
| CN1[C@@H](C(=O)N[C@H]2CC[C@H](CN3CCC(c4ccc5c(c4)n(C)c(=O)n5C4CCC(=O)NC4=O)CC3)CC2)[C@H](c2ccnc(Cl)c2F)[C@]2(C(=O)Nc3cc(Cl)ccc32)C12CCC(C)(C)CC2 (some centres unmarked) [I-14] | < 10 | < 5 |
| Cn1c(=O)n(C2CCC(=O)NC2=O)c2ccc(N3CCN(CC4CCN(C(=O)[C@H]5CC[C@H](NC(=O)[C@@H]6NC7(CCCCC7)[C@@]7(C(=O)Nc8cc(Cl)ccc87)[C@H]6c6cccc(Cl)c6F)CC5)CC4)CC3)cc21 (some centres unmarked) [I-15] | < 10 | < 5 |
| Cn1c(=O)n(C2CCC(=O)NC2=O)c2ccc(C#CC3CCN(C(=O)[C@@H]4CC[C@@H](NC(=O)[C@@H]5NC6(CCC(C)(C)CC6)[C@@]6(C(=O)Nc7cc(Cl)ccc76)[C@H]5c5cccc(Cl)c5F)CO4)CC3)cc21 (some centres unmarked) [I-36] |  | < 5 |
| COc1cc2c(cc1OC(C)C)[C@H](c1ccc(Cl)cc1)N(c1ccc(N(C)CC3CCN(CCCc4ccc5c(c4)n(C)c(=O)n5C4CCC(=O)NC4=O)C(=O)C3)cc1)C(=O)C2 (some centres unmarked) [I-68] |  | < 5 |
| Cn1c(=O)n(C2CCC(=O)NC2=O)c2ccc(C3(C(=O)O)CCN(C(=O)[C@H]4CC[C@H](NC(=O)[C@@H]5NC6(CCCCC6)C6(C(=O)Nc7cc(Cl)ccc76)[C@H]5c5cccc(Cl)c5F)CC4)CC3)cc21 (stereo partly drawn) [I-84, 1-((1R,4r)-4-((3′R,4′S,5′R)-6″-chloro-4′-(3-chloro-2-fluorophenyl)-2″-oxodispiro[cyclohexane-1,2′-pyrrolidine-3′,3″-indoline]-5′-carboxamido)cyclohexane-1-carbonyl)-4-(1-(2,6-dioxopiperidin-3-yl)-3-methyl-2-oxo-2,3-dihydro-1H-benzo[d]imidazol-5-yl)piperidine-4-carboxylic acid] |  | 50 to 500 |
| Cn1c(=O)n(C2CCC(=O)NC2=O)c2ccc(CCCS(=O)(=O)NC(=O)[C@H]3CC[C@H](NC(=O)[C@@H]4NC5(CCCCC5)[C@@]5(C(=O)Nc6cc(Cl)ccc65)[C@H]4c4cccc(Cl)c4F)CC3)cc21 (some centres unmarked) [I-100] |  | 50 to 500 |
| CN1C(=O)CCC(n2c(=O)n(C)c3cc(C4CCN(C[C@H]5CC[C@H](NC(=O)[C@@H]6NC7(CCCCC7)[C@@]7(C(=O)Nc8cc(Cl)ccc87)[C@H]6c6cccc(Cl)c6F)CC5)CC4)ccc32)C1=O (some centres unmarked) [I-101] |  | 5 to 50 |
| COC(=O)C1(c2ccc3c(c2)n(C)c(=O)n3C2CCC(=O)NC2=O)CCN(C(=O)[C@H]2CC[C@H](NC(=O)[C@@H]3NC4(CCCCC4)[C@@]4(C(=O)Nc5cc(Cl)ccc54)[C@H]3c3cccc(Cl)c3F)CC2)CC1 (stereo partly drawn) [I-102, methyl 1-((1R,4r)-4-((3′R,4′S,5′R)-6″-chloro-4′-(3-chloro-2-fluorophenyl)-2″-oxodispiro[cyclohexane-1,2′-pyrrolidine-3′,3″-indoline]-5′-carboxamido)cyclohexane-1-carbonyl)-4-(1-(2,6-dioxopiperidin-3-yl)-3-methyl-2-oxo-2,3-dihydro-1H-benzo[d]imidazol-5-yl)piperidine-4-carboxylate] |  | < 5 |
| Cn1c(=O)n(C2CCC(=O)NC2=O)c2ccc(CCCN3CCN(C[C@H]4CC[C@H](NC(=O)[C@@H]5NC6(CCCCC6)[C@@]6(C(=O)Nc7cc(Cl)ccc76)[C@H]5c5cccc(Cl)c5F)CC4)[C@@H](C(=O)NS(C)(=O)=O)C3)cc21 (some centres unmarked) [I-222] | < 10 |  |
| Cn1c(=O)n(C2CCC(=O)NC2=O)c2ccc(CCCN3CCN(C[C@H]4CC[C@H](NC(=O)[C@@H]5NC6(CCC(C)(C)CC6)[C@@]6(C(=O)Nc7cc(Cl)ccc76)[C@H]5c5ccnc(Cl)c5F)CC4)[C@@H](C(=O)O)C3)cc21 (some centres unmarked) [I-223] | < 10 |  |
| Cn1c(=O)n(C2CCC(=O)NC2=O)c2ccc(C3CCN(CCN4CCN(C[C@H]5CC[C@H](NC(=O)[C@@H]6NC7(CCCCC7)[C@@]7(C(=O)Nc8cc(Cl)ccc87)[C@H]6c6cccc(Cl)c6F)CC5)[C@H](C(=O)O)C4)CC3)cc21 (some centres unmarked) [I-227] | < 10 |  |
| Cn1c(=O)n(C2CCC(=O)NC2=O)c2ccc(CCCN3CCN(C[C@H]4CC[C@H](NC(=O)[C@@H]5NC6(CCCCC6)[C@@]6(C(=O)Nc7cc(Cl)ccc76)[C@H]5c5cccc(Cl)c5F)CC4)C[C@H]3C(=O)O)cc21 (some centres unmarked) [I-229] | < 10 |  |
| Cn1c(=O)n(C2CCC(=O)NC2=O)c2ccc(CCCN3CCN(C[C@H]4CC[C@H](NC(=O)[C@@H]5NC6(CCCCC6)[C@@]6(C(=O)Nc7cc(Cl)ccc76)[C@H]5c5cccc(Cl)c5F)CC4)C(P(=O)(O)O)C3)cc21 (some centres unmarked) [I-235] | 10 to 100 |  |

Source: patent publication US20250034147A1, “MDM2 DEGRADERS AND USES THEREOF” (Kymera Therapeutics, Inc., priority 2021, published 2025)
